This is an account of results in ChEMBL document CHEMBL5696442, “Discovery of type II inhibitors of TGFβ-activated kinase 1 (TAK1) and mitogen-activated protein kinase kinase kinase kinase 2 (MAP4K2)” (J Med Chem, 2015).

The source made the active and inactive calls. The rule behind the calls is not given here.

Assay [1] deals with T1, Serine/threonine-protein kinase Nek1 (Homo sapiens) (UniProt Q96PY6).
T1 sequence (whole entry): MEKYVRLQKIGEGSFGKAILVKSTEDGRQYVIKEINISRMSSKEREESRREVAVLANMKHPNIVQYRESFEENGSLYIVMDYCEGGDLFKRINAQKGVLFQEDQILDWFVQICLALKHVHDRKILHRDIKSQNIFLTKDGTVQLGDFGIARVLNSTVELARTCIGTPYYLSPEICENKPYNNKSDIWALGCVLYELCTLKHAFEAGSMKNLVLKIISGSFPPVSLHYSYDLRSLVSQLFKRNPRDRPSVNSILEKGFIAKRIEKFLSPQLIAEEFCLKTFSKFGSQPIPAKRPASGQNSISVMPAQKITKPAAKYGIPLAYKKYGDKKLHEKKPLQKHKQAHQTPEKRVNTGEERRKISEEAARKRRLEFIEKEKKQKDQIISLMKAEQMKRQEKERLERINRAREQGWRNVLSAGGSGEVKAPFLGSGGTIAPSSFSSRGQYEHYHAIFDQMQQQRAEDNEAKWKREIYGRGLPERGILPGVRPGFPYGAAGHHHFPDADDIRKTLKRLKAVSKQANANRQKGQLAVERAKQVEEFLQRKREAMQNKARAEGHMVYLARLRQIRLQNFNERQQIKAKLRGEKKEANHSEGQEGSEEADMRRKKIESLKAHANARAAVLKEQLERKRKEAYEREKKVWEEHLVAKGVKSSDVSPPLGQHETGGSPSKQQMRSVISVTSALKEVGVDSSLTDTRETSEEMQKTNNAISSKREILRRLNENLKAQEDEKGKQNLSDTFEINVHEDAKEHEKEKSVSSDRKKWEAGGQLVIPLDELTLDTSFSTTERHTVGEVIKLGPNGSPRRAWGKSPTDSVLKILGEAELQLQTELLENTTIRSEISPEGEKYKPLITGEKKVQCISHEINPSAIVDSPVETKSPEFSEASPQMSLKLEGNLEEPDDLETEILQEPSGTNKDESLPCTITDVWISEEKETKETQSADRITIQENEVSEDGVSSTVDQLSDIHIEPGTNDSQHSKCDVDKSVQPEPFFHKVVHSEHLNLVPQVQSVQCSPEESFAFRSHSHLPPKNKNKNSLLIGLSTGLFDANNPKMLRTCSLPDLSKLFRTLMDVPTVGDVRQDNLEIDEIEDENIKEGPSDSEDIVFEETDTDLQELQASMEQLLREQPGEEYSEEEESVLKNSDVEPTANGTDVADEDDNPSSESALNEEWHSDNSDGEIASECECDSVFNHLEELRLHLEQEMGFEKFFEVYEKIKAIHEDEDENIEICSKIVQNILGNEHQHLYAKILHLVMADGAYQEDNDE
The experiment in a line: Inhibition of NEK1 (unknown origin) at 1 uM by Ambit Kinomescan binding assay relative to control; values are per cent of control.

Assay [2] deals with Ephrin type-A receptor 8 (Homo sapiens) (UniProt P29322). The experiment in a line: Inhibition of EPHA8 (unknown origin) at 10 uM by Ambit Kinomescan binding assay relative to control.
Chain of Ephrin type-A receptor 8 (Homo sapiens) (P29322 whole entry): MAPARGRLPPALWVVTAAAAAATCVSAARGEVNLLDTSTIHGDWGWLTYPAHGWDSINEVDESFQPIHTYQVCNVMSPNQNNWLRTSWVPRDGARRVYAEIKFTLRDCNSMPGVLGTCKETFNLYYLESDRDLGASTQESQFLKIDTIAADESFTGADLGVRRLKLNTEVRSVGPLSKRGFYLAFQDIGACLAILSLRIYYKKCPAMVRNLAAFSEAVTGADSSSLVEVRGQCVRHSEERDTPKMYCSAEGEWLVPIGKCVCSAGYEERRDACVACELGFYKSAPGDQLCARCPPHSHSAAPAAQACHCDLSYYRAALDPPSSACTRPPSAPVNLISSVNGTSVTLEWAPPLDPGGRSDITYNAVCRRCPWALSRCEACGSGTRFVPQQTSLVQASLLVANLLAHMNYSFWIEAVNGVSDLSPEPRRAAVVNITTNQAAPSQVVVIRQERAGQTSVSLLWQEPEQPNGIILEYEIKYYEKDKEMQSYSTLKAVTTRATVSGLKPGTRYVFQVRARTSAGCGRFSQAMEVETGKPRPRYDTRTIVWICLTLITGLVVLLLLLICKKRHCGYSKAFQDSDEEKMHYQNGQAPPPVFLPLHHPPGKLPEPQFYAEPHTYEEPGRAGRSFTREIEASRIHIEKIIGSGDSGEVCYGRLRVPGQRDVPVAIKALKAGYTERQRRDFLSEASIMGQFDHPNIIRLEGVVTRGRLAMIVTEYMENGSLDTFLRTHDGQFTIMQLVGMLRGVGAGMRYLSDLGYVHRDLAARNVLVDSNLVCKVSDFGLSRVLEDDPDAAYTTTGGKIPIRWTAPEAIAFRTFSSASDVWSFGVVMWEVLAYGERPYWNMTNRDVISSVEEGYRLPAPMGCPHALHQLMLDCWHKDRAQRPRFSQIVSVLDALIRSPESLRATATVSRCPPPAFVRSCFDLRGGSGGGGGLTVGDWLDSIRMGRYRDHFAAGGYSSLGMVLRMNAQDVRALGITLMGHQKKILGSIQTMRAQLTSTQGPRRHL
The target in assay [3] is Serine/threonine-protein kinase BRSK1 (Homo sapiens) (UniProt Q8TDC3). The assay is described as follows: Inhibition of BRSK1 (unknown origin) at 10 uM by Ambit Kinomescan binding assay.
Chain of Serine/threonine-protein kinase BRSK1 (Homo sapiens) (Q8TDC3 whole entry): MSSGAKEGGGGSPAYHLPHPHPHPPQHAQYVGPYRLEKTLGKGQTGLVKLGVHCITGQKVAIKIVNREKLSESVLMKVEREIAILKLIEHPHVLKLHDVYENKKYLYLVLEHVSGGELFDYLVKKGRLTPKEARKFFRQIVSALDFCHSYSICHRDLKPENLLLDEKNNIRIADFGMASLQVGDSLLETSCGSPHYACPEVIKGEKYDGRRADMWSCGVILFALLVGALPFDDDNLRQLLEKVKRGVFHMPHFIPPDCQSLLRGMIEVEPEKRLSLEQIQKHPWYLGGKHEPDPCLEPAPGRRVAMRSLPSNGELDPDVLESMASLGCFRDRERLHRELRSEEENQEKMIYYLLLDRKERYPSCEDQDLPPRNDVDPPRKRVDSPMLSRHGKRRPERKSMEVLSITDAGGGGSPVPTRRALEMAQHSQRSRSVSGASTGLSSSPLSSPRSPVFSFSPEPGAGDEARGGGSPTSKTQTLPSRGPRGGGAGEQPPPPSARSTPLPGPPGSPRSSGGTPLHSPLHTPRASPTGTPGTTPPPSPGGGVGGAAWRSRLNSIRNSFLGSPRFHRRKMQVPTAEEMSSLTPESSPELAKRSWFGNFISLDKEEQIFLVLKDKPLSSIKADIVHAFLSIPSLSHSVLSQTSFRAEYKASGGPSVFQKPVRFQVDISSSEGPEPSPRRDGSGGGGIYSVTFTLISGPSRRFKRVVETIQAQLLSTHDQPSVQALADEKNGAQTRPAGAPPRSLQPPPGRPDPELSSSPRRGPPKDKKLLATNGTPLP
The target in assay [4] is T2, Serine/threonine-protein kinase TAO2 (Homo sapiens) (UniProt Q9UL54).
T2 sequence (whole entry): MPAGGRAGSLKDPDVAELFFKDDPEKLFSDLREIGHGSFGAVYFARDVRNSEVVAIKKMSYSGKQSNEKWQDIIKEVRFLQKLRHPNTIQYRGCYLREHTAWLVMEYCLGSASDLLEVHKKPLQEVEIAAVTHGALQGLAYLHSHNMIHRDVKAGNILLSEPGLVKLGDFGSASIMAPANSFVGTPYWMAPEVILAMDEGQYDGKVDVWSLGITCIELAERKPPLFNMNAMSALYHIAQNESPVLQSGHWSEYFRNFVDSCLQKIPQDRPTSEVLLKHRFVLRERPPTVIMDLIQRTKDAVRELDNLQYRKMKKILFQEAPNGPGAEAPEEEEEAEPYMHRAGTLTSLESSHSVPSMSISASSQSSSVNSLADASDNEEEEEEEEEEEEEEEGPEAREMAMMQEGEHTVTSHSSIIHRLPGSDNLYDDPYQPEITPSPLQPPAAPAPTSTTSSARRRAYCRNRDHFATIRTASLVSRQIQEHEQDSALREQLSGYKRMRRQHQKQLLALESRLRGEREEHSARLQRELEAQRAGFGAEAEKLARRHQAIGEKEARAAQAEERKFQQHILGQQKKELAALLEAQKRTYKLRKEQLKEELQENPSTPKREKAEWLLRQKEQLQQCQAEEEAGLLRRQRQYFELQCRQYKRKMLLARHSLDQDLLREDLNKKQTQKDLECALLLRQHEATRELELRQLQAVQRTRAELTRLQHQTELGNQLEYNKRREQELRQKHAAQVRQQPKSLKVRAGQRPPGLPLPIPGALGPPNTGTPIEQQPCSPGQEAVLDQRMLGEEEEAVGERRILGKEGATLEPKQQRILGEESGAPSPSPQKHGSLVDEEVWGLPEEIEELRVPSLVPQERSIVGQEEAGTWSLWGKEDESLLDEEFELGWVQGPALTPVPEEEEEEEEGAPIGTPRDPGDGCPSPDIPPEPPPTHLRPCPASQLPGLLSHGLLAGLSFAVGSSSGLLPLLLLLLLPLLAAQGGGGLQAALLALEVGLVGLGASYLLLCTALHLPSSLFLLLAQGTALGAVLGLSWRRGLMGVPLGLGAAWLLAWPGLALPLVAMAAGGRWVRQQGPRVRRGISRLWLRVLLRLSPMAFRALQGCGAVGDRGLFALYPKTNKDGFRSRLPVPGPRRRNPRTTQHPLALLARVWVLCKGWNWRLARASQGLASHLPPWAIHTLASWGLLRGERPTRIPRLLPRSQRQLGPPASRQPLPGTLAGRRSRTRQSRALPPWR
The assay is described as follows: Inhibition of TAO2 K2 labeling site in human Huh-7 cells at 10 uM by KiNativ Profiling analysis relative to control. The class given is cell-based.

On to `CCN1CCN(Cc2ccc(NC(=O)c3ccc(C)c(/C=C/c4cnc5[nH]ccc5c4OC)c3)cc2C(F)(F)F)CC1`, for which the residual activity in assay [1] is 83%.

Regarding `CCN1CCN(Cc2ccc(NC(=O)c3ccc(C)c(Oc4ccnc5[nH]ccc45)c3)cc2C(F)(F)F)CC1`, the inhibition came out at 0.1% in assay [2] and 28.6% in assay [4]. Moreover, in assay [3], the inhibition entry was “inactive”.

By residual activity is commonly meant the share of the control activity or signal that is left under treatment. The low end stands for little activity left, the high end for much activity left. Broadly, the inhibition is the percentage by which the read-out fell short of the control.
